Test results from patent US8192962B2, “Processes for detecting toxic substances” (Daikin Industries, Ltd., priority 2001, dated 2012).

Test system: Unknown protein yeast genes
Assay: DNA chip mRNA expression in yeast, unknown protein yeast genes (Table 1)
Format: cell-based, Saccharomyces cerevisiae S288C
Procedure: Yeast (Saccharomyces cerevisiae S288C (α SUC2mal mel gap2 CUP1)) were incubated at 25° C. on YPD medium (yeast extract 1%, polypepton 2%, glucose 2%). One of toxic chemical substances was added to the cells at logarithmic growth phase, and the cells were further incubated for two hours. Cells were cultured without any chemical substance in the same condition, and were used as control. Concentrations of the chemical substances were defined to inhibit the growth of the yeast but not lead to death.
After completion of the incubation, the culture was centrifuged to collect the cells. To the cells, sodium acetate buffer (50 mM sodium acetate, 10 mM EDTA, 1% SDS) was added, and the mixture was shaken at 65° C. for five minutes, followed by returning to room temperature, and obtaining the supernatant, of which the procedures were repeated two times. To the supernatant, ½ amount of a solution of phenol/chloroform was added, and the mixture was centrifuged to give a supernatant, which was added with an equal amount of chloroform, and the mixture was centrifuged to give a supernatant. To the supernatant, an equal amount of isopropanol containing 0.3 M sodium acetate was added, and the mixture was allowed to stand at room temperature for 30 minutes, after which the mixture was centrifuged to give a sediment of the whole RNAs. Seventy % ethanol was added to the sediment, and the mixture was again centrifuged to give a sediment, which was then dried and dissolved in water. mRNA was isolated from the whole RNAs as followings. In view of the fact that a poly A chain is attached to the 3′ terminus of mRNA, a polynucleotide having a poly T structure which was immobilized on the surface of latex beads was used to trap the mRNA, and then the mRNA was washed and eluted with spine column (Oligotex-dT30<Super>mRNA Purification Kit, Takara). Reverse transcription of the mRNA was conducted with a reverse transcriptase (Super Script II Reverse Transcriptase; catalogue No. 18064-014, GibcoBRL) using fluorescence-labeled nucleotides to give cDNAs that were introduced with Cy3-dUTP or Cy5-dUTP during the reverse transcription.
The labeled cDNAs were dissolved in TE buffer (10mM Tris-HCl/1 mM EDTA, pH8.0), and the solution was dropped on the DNA chip containing the whole genes of yeast (DNA Chip Research Inc. Japan) so that the cDNAs were hybridized on the DNA chip at 65° C. for over 12 hours. The fluoresces intensity of the DNA chip was read with a scanner, and the ratio relative to the fluorescence intensity resulting from the absence of chemical substance was estimated as the following, which is shown in Tables 1 to 9: […]

For `N#Cc1c(Cl)c(Cl)c(Cl)c(C#N)c1Cl` [(9), 2,4,5,6-tetrachloro-1,3-benzenedicarbonitrile], the “The level of expressed mRNA in the presence of chemical substance/The level of expressed mRNA in the absence of chemical substance” value (yeast gene YAL053W, incubated two hours with chemical substance) was 1.4, the “The level of expressed mRNA in the presence of chemical substance/The level of expressed mRNA in the absence of chemical substance” value (yeast gene YBL048W) was 7.2 and the “The level of expressed mRNA in the presence of chemical substance/The level of expressed mRNA in the absence of chemical substance” value (yeast gene YBL107C) was 1.0. For the same molecule, the “The level of expressed mRNA in the presence of chemical substance/The level of expressed mRNA in the absence of chemical substance” value (yeast gene YDL072C, incubated two hours with chemical substance) was 1.1, the “The level of expressed mRNA in the presence of chemical substance/The level of expressed mRNA in the absence of chemical substance” value (yeast gene YDL146W) was 0.8 and the “The level of expressed mRNA in the presence of chemical substance/The level of expressed mRNA in the absence of chemical substance” value (yeast gene YDL204W, incubated two hours with chemical substance) was 2.3. For the same molecule, the “The level of expressed mRNA in the presence of chemical substance/The level of expressed mRNA in the absence of chemical substance” value (yeast gene YDL222C, incubated two hours with chemical substance) was 1.9, the “The level of expressed mRNA in the presence of chemical substance/The level of expressed mRNA in the absence of chemical substance” value (yeast gene YDR057W) was 1.5 and the “The level of expressed mRNA in the presence of chemical substance/The level of expressed mRNA in the absence of chemical substance” value (yeast gene YDR286C) was 0.8. For the same molecule, the “The level of expressed mRNA in the presence of chemical substance/The level of expressed mRNA in the absence of chemical substance” value (yeast gene YDR330W, incubated two hours with chemical substance) was 3.9, the “The level of expressed mRNA in the presence of chemical substance/The level of expressed mRNA in the absence of chemical substance” value (yeast gene YDR391C, incubated two hours with chemical substance) was 1.5 and the “The level of expressed mRNA in the presence of chemical substance/The level of expressed mRNA in the absence of chemical substance” value (yeast gene YDR411C, incubated two hours with chemical substance) was 0.7. The “The level of expressed mRNA in the presence of chemical substance/The level of expressed mRNA in the absence of chemical substance” value (yeast gene YDR511W, incubated two hours with chemical substance) was 2.5, the “The level of expressed mRNA in the presence of chemical substance/The level of expressed mRNA in the absence of chemical substance” value (yeast gene YDR545W, incubated two hours with chemical substance) was 1.8 and the “The level of expressed mRNA in the presence of chemical substance/The level of expressed mRNA in the absence of chemical substance” value (yeast gene YEL001C, incubated two hours with chemical substance) was 2.0. The “The level of expressed mRNA in the presence of chemical substance/The level of expressed mRNA in the absence of chemical substance” value (yeast gene YER004W, incubated two hours with chemical substance) was 4.5, the “The level of expressed mRNA in the presence of chemical substance/The level of expressed mRNA in the absence of chemical substance” value (yeast gene YER035W, incubated two hours with chemical substance) was 1.2 and the “The level of expressed mRNA in the presence of chemical substance/The level of expressed mRNA in the absence of chemical substance” value (yeast gene YER079W, incubated two hours with chemical substance) was 5.3. For the same molecule, the “The level of expressed mRNA in the presence of chemical substance/The level of expressed mRNA in the absence of chemical substance” value (yeast gene YER106W, incubated two hours with chemical substance) was 0.4, the “The level of expressed mRNA in the presence of chemical substance/The level of expressed mRNA in the absence of chemical substance” value (yeast gene YER158C, incubated two hours with chemical substance) was 2.1 and the “The level of expressed mRNA in the presence of chemical substance/The level of expressed mRNA in the absence of chemical substance” value (yeast gene YER163C, incubated two hours with chemical substance) was 5.4. The “The level of expressed mRNA in the presence of chemical substance/The level of expressed mRNA in the absence of chemical substance” value (yeast gene YER175C, incubated two hours with chemical substance) was 1.9, the “The level of expressed mRNA in the presence of chemical substance/The level of expressed mRNA in the absence of chemical substance” value (yeast gene YFL006W, incubated two hours with chemical substance) was 3.2 and the “The level of expressed mRNA in the presence of chemical substance/The level of expressed mRNA in the absence of chemical substance” value (yeast gene YFL010C, incubated two hours with chemical substance) was 3.1. For the same molecule, the “The level of expressed mRNA in the presence of chemical substance/The level of expressed mRNA in the absence of chemical substance” value (yeast gene YFL017C) was 0.8, the “The level of expressed mRNA in the presence of chemical substance/The level of expressed mRNA in the absence of chemical substance” value (yeast gene YFL024C) was 0.5 and the “The level of expressed mRNA in the presence of chemical substance/The level of expressed mRNA in the absence of chemical substance” value (yeast gene YFL032W, incubated two hours with chemical substance) was 0.5. The “The level of expressed mRNA in the presence of chemical substance/The level of expressed mRNA in the absence of chemical substance” value (yeast gene YFR008W) was 1.5, the “The level of expressed mRNA in the presence of chemical substance/The level of expressed mRNA in the absence of chemical substance” value (yeast gene YGL037C, incubated two hours with chemical substance) was 2.1 and the “The level of expressed mRNA in the presence of chemical substance/The level of expressed mRNA in the absence of chemical substance” value (yeast gene YGL047W, incubated two hours with chemical substance) was 4.5. The “The level of expressed mRNA in the presence of chemical substance/The level of expressed mRNA in the absence of chemical substance” value (yeast gene YGL053W, incubated two hours with chemical substance) was 3.3, the “The level of expressed mRNA in the presence of chemical substance/The level of expressed mRNA in the absence of chemical substance” value (yeast gene YGL121C) was 7.0 and the “The level of expressed mRNA in the presence of chemical substance/The level of expressed mRNA in the absence of chemical substance” value (yeast gene YGR101W, incubated two hours with chemical substance) was 4.0. For the same molecule, the “The level of expressed mRNA in the presence of chemical substance/The level of expressed mRNA in the absence of chemical substance” value (yeast gene YGR110W) was 6.4, the “The level of expressed mRNA in the presence of chemical substance/The level of expressed mRNA in the absence of chemical substance” value (yeast gene YGR130C, incubated two hours with chemical substance) was 2.0 and the “The level of expressed mRNA in the presence of chemical substance/The level of expressed mRNA in the absence of chemical substance” value (yeast gene YGR154C, incubated two hours with chemical substance) was 25.2. The “The level of expressed mRNA in the presence of chemical substance/The level of expressed mRNA in the absence of chemical substance” value (yeast gene YHL042W) was 0.8, the “The level of expressed mRNA in the presence of chemical substance/The level of expressed mRNA in the absence of chemical substance” value (yeast gene YHR138C, incubated two hours with chemical substance) was 5.3 and the “The level of expressed mRNA in the presence of chemical substance/The level of expressed mRNA in the absence of chemical substance” value (yeast gene YHR199C, incubated two hours with chemical substance) was 8.6. For the same molecule, the “The level of expressed mRNA in the presence of chemical substance/The level of expressed mRNA in the absence of chemical substance” value (yeast gene YIL023C, incubated two hours with chemical substance) was 3.5, the “The level of expressed mRNA in the presence of chemical substance/The level of expressed mRNA in the absence of chemical substance” value (yeast gene YIL024C, incubated two hours with chemical substance) was 2.2 and the “The level of expressed mRNA in the presence of chemical substance/The level of expressed mRNA in the absence of chemical substance” value (yeast gene YIL041W, incubated two hours with chemical substance) was 1.8. For the same molecule, the “The level of expressed mRNA in the presence of chemical substance/The level of expressed mRNA in the absence of chemical substance” value (yeast gene YIL087C, incubated two hours with chemical substance) was 2.4, the “The level of expressed mRNA in the presence of chemical substance/The level of expressed mRNA in the absence of chemical substance” value (yeast gene YIL117C, incubated two hours with chemical substance) was 2.3 and the “The level of expressed mRNA in the presence of chemical substance/The level of expressed mRNA in the absence of chemical substance” value (yeast gene YJL057C, incubated two hours with chemical substance) was 7.3. For the same molecule, the “The level of expressed mRNA in the presence of chemical substance/The level of expressed mRNA in the absence of chemical substance” value (yeast gene YJL066C, incubated two hours with chemical substance) was 2.0, the “The level of expressed mRNA in the presence of chemical substance/The level of expressed mRNA in the absence of chemical substance” value (yeast gene YJL082W, incubated two hours with chemical substance) was 1.4 and the “The level of expressed mRNA in the presence of chemical substance/The level of expressed mRNA in the absence of chemical substance” value (yeast gene YJL108C, incubated two hours with chemical substance) was 0.3. For the same molecule, the “The level of expressed mRNA in the presence of chemical substance/The level of expressed mRNA in the absence of chemical substance” value (yeast gene YJL151C, incubated two hours with chemical substance) was 0.5, the “The level of expressed mRNA in the presence of chemical substance/The level of expressed mRNA in the absence of chemical substance” value (yeast gene YJL152W, incubated two hours with chemical substance) was 0.3 and the “The level of expressed mRNA in the presence of chemical substance/The level of expressed mRNA in the absence of chemical substance” value (yeast gene YJL161W, incubated two hours with chemical substance) was 3.1. The “The level of expressed mRNA in the presence of chemical substance/The level of expressed mRNA in the absence of chemical substance” value (yeast gene YJL171C, incubated two hours with chemical substance) was 1.0, the “The level of expressed mRNA in the presence of chemical substance/The level of expressed mRNA in the absence of chemical substance” value (yeast gene YJR008W, incubated two hours with chemical substance) was 1.8 and the “The level of expressed mRNA in the presence of chemical substance/The level of expressed mRNA in the absence of chemical substance” value (yeast gene YKL065C) was 3.1. For the same molecule, the “The level of expressed mRNA in the presence of chemical substance/The level of expressed mRNA in the absence of chemical substance” value (yeast gene YKL071W) was 162.2, the “The level of expressed mRNA in the presence of chemical substance/The level of expressed mRNA in the absence of chemical substance” value (yeast gene YKL086W, incubated two hours with chemical substance) was 8.2 and the “The level of expressed mRNA in the presence of chemical substance/The level of expressed mRNA in the absence of chemical substance” value (yeast gene YKL147C) was 1.0. The “The level of expressed mRNA in the presence of chemical substance/The level of expressed mRNA in the absence of chemical substance” value (yeast gene YKL151C, incubated two hours with chemical substance) was 3.3 and the “The level of expressed mRNA in the presence of chemical substance/The level of expressed mRNA in the absence of chemical substance” value (yeast gene YKL153W, incubated two hours with chemical substance) was 0.8.
